Measurements published in patent US7932262B2 (Novartis AG, priority 2006, dated 2011).

Columns and labels:
PC-3 cells = assay: Cell Proliferation Assay (Cell Titer Glo), PC-3 cell line; assay type: cell-based; conditions: Homo sapiens, PC-3, 72 h, PC-3 cells, 3 days incubation; read-out: CP EC50 PC3
Procedure, shortened: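 PC-3 cells, 1000 cells/well, left to adhere 3-5 h, then exposed for 3 days at 37° C to compounds as 1:3 serial dilutions from 500× DMSO stocks diluted in growth medium. Medium then replaced with fresh medium and viability read by Cell Titer Glo luminescence.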

[1] = tested on: pAkt308 (phosphorylation of Akt at T308) in PC-3 cells; assay: pAkt T308 ECL Assay in PC-3 cells; assay type: cell-based; conditions: Homo sapiens, 6 h, six hours with compound, read-out: PAKT308 PC3 IC50
Procedure, shortened: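 PC-3 cells seeded at 15,000/well overnight were treated with serially diluted compounds for 6 h at 37° C, then lysed on ice. Lysates were captured on MSD plates for pAkt T308 and total Akt, detected with 10 nM SULFO-TAG antibodies by electrochemiluminescence.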

PDK1 kinase = target: T1, PDK1 kinase (Homo sapiens, UniProt O15530); assay: PDK1 Kinase Alpha Screen Assay; assay type: biochemical; conditions: read-out: PDK1 IC50
T1 sequence (O15530 1-556): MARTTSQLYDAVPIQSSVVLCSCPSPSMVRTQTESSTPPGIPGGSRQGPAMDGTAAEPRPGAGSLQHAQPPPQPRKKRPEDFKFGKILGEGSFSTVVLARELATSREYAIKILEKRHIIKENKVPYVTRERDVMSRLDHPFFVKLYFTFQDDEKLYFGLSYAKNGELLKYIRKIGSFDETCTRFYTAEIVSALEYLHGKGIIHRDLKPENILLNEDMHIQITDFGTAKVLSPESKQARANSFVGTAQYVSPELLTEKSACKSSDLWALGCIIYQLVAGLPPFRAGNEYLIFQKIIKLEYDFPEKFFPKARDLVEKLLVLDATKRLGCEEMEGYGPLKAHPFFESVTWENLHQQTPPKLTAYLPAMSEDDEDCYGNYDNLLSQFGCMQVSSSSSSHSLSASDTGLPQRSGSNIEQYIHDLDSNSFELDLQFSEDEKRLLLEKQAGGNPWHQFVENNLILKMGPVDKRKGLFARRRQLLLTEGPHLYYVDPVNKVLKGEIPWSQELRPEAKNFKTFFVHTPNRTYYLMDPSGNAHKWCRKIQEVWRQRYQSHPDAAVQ
Procedure, shortened: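 Compound in DMSO added to PDK1-4 peptide; PDK1/ATP mix starts reaction (final 50 nM peptide, 10 uM ATP). Runs 3-18 hours, stopped with 90 mM EDTA buffer. Antibody/bead mix added, developed overnight at room temperature, then AlphaScreen signal read.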

PC3MM cells = assay: Cell Proliferation Assay (Cell Titer Glo), PC3MM; assay type: cell-based; conditions: 72 h; PC3MM cells, 3 days incubation; read-out: CP EC50 PC3MM
Procedure, shortened: (§1)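 Cells seeded at 1000/well, allowed to adhere 3-5 h, then exposed to DMSO-dissolved compounds for 3 days at 37° C., 5% CO2. Medium replaced before Cell Titer Glo addition; luminescence read after 10 min.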

A2780 cells = assay: Cell Proliferation Assay (Cell Titer Glo), A2780; assay type: cell-based; conditions: Homo sapiens, 72 h; A2780 cells, 3 days incubation; read-out: CPEC50 A2780
Procedure, shortened: as §1

CN1CCC(Oc2ccc3cnc(Nc4ccc(S(N)(=O)=O)cc4)nc3c2)CC1 [Compound 52, 4-[7-(1-Methyl-piperidin 4-yloxy)-quinazolin-2-ylamino]-benzenesulfonamide]
< 5 µM: EC50 (PC-3 cells) | IC50 [1] | IC50 (PDK1 kinase) | EC50 (PC3MM cells) | EC50 (A2780 cells)
